In data set [1] the test system is Pieris brassicae. Put plainly: Antifeedant activity against fifth-instar larvae of Pieris brassicae on cabbage leaf discs at 5 mM measured 1.5 to 3 hr time period by no-choice bioassay. Format: functional.
Data set [2] deals with Pieris brassicae. Nature of the data set: Antifeedant activity against fifth-instar larvae of Pieris brassicae on cabbage leaf discs at 5 mM measured 0 to 1.5 hr time period by no-choice bioassay. Type of data set: functional.
Data set [3] deals with Pieris brassicae. Put plainly: Post-ingestive toxicity in Pieris brassicae on cabbage leaf discs at 5 mM. Format: organism-based. To be noted: in vivo, po, 5000 µM.
The test system of data set [4] is Pieris brassicae. Nature of the data set: Antifeedant activity against fifth-instar larvae of Pieris brassicae on cabbage leaf discs at 5 mM measured upto 3 hr time period by two-choice bioassay. Type of data set: functional.

Take `CCCCCCC1C[C@H]2C=CO[C@H]2O1` (some centres undefined): the AFI with Pieris brassicae [1] is given as 10.6%; in the data set with Pieris brassicae [2], 20.3%; with Pieris brassicae [4], 11%. For the same molecule, the Activity result in the data set on Pieris brassicae [3] is recorded as “Non-toxic”.
Regarding `OC1C[C@]2(O)C[C@@H](C3CCCCC3)O[C@@H]2O1` (some centres undefined), the AFI in the data set on Pieris brassicae [4] is on record as 16%.
Take `C1=C[C@@H]2CC(c3ccccc3)O[C@@H]2O1` (some centres undefined): the AFI with Pieris brassicae [1] is listed as -2.6%; in the data set on Pieris brassicae [2] it was -1.7%; in the data set on Pieris brassicae [4], 11%. Also, in the data set with Pieris brassicae [3], the Activity result is on record as “Non-toxic”.
As for `O=C1C[C@H]2CC(C3CCCCC3)O[C@H]2O1` (some centres undefined), the AFI turned out to be 13.9% with Pieris brassicae [1], 22.4% in the data set with Pieris brassicae [2] and 10% in the data set with Pieris brassicae [4]. Further, the Activity result in the data set on Pieris brassicae [3] is reported as “Non-toxic”.
`O=C1C[C@H]2C[C@@H](C3CCCCC3)O[C@@H]2O1` (relative stereo): in the data set with Pieris brassicae [4], the AFI is recorded as 9%.
Turning to `C1=C[C@@H]2CC(C3CCCCC3)O[C@@H]2O1` (some centres undefined), the AFI in the data set with Pieris brassicae [1] was -12.3%; with Pieris brassicae [2], -9.3%; in the data set on Pieris brassicae [4], -2.5%. Further, the Activity result with Pieris brassicae [3] is “Non-toxic”.
For the molecule `C1CCC(C2C[C@@H]3CCO[C@@H]3O2)CC1` (some centres undefined), the results for the AFI with Pieris brassicae [1], with Pieris brassicae [2] and with Pieris brassicae [4] were 5.4%, 6.7% and 26%, respectively. In addition, the Activity entry with Pieris brassicae [3] is “Non-toxic”.
Regarding `CC(=O)OC1C[C@]2(O)C[C@@H](C3CCCCC3)O[C@@H]2O1` (some centres undefined), the AFI in the data set with Pieris brassicae [4] was 9%.
With `CCCCCCC1C[C@H]2CC(=O)O[C@H]2O1` (some centres undefined), the AFI with Pieris brassicae [4] is listed as -11%.
Regarding `CC(=O)OC1C[C@H]2CC(C3CCCCC3)O[C@H]2O1` (some centres undefined), the AFI in the data set with Pieris brassicae [1] came out at 3%; in the data set with Pieris brassicae [2], 16.7%; in the data set on Pieris brassicae [4], 16%. The Activity entry in the data set on Pieris brassicae [3] is recorded as “Non-toxic”.
With `CCCCCCCCCCC1C[C@H]2CC(=O)O[C@H]2O1` (some centres undefined), the AFI with Pieris brassicae [4] is 41%.
As for `CCOC1C[C@H]2CC(C3CCCCC3)O[C@H]2O1` (some centres undefined), the figures for the AFI in the data set on Pieris brassicae [1], in the data set on Pieris brassicae [2] and with Pieris brassicae [4] were 9.5%, 18.3% and 20%, respectively. The Activity result in the data set with Pieris brassicae [3] is “Non-toxic”.
Turning to `O=C1C[C@@H]2C[C@@H](c3ccccc3)O[C@@H]2O1` (racemic), in the data set with Pieris brassicae [4], the AFI was 18%.
Still for that read-out and setting: with `O[C@]12CCO[C@H]1O[C@H](C1CCCCC1)C2` the figure was 24%.
In the case of `OC1C[C@H]2CC(C3CCCCC3)O[C@H]2O1` (some centres undefined), the figures for the AFI in the data set with Pieris brassicae [1], with Pieris brassicae [2] and in the data set on Pieris brassicae [4] were 15.9%, 18.6% and 10%, respectively. The Activity result in the data set on Pieris brassicae [3] was “Non-toxic”.
Turning to `CCCCCCCCCC[C@@H]1C[C@H]2CC(=O)O[C@H]2O1` (racemic), the AFI in the data set with Pieris brassicae [4] was 10%.
Still for that read-out and setting: next, `COC1C[C@]2(O)C[C@@H](C3CCCCC3)O[C@@H]2O1` (some centres undefined): 18%.
The same measure, in the same setting: with `O=C1C[C@@H]2C[C@H](C3CCCCC3)O[C@@H]2O1` (relative stereo) the figure was 24%; with `O=C1C[C@]2(O)C[C@@H](C3CCCCC3)O[C@@H]2O1`, 9%; with `O[C@]12C=CO[C@H]1O[C@H](C1CCCCC1)C2`, 54%.

Values taken from ChEMBL document CHEMBL3044695, “Synthesis and insect antifeedant activity of C-2 and C-5 substituted perhydrofurofurans and 3a-hydroxy-perhydrofurofurans (Part I)” (Tetrahedron, 1999).
